# Experimental data as given in ChEMBL document CHEMBL5338715, “Identification of (S)-1-(2-(2,4-difluorophenyl)-4-oxothiazolidin-3-yl)-3-(4-((7-(3-(4-ethylpiperazin-1-yl)propoxy)-6-methoxyquinolin-4-yl)oxy)-3,5-difluorophenyl)urea as a potential anti-colorectal cancer agent” (Eur J Med Chem, 2022).
# System: BaF3
# Test: cells
# Conditions: Mus musculus, BaF3, 72 h
row,Compound,IC50
1,COc1cc2c(Oc3ccc(NC(=O)NN4C(=O)CSC4c4c(F)cccc4F)cc3)ccnc2cc1OCCCN1CCCC1 (stereo not drawn),0.066 µM
2,CCN(CC)CCCOc1cc2nccc(Oc3ccc(NC(=O)NN4C(=O)CSC4c4c(F)cccc4F)cc3)c2cc1OC (stereo not drawn),0.058 µM
3,CCN1CCN(CCCOc2cc3nccc(Oc4c(F)cc(NC(=O)NN5C(=O)CSC5c5ccc(F)cc5)cc4F)c3cc2OC)CC1 (stereo not drawn),0.071 µM
4,COc1cc2nccc(Oc3c(F)cc(NC(=O)NN4C(=O)CSC4c4c(F)cccc4F)cc3F)c2cc1OC (stereo not drawn),0.17 µM
5,CCN1CCN(CCCOc2cc3nccc(Oc4c(F)cc(NC(=O)NN5C(=O)CSC5c5ccccc5)cc4F)c3cc2OC)CC1 (stereo not drawn),0.14 µM
6,CCN(CC)CCCOc1cc2nccc(N(C)c3ccc(NC(=O)NN4C(=O)CSC4c4c(F)cccc4F)cc3)c2cc1OC (stereo not drawn),2.2 µM

# System: BaF3
# Test: cells
# Conditions: Mus musculus, BaF3, 72 h
# Remark: another data set of the same source
row,Compound,IC50
1,COc1cc2c(Oc3ccc(NC(=O)NN4C(=O)CSC4c4c(F)cccc4F)cc3)ccnc2cc1OCCCN1CCCC1 (stereo not drawn),0.15 µM
2,CCN(CC)CCCOc1cc2nccc(Oc3ccc(NC(=O)NN4C(=O)CSC4c4c(F)cccc4F)cc3)c2cc1OC (stereo not drawn),0.12 µM
3,CCN1CCN(CCCOc2cc3nccc(Oc4c(F)cc(NC(=O)NN5C(=O)CSC5c5ccc(F)cc5)cc4F)c3cc2OC)CC1 (stereo not drawn),0.14 µM
4,COc1cc2nccc(Oc3c(F)cc(NC(=O)NN4C(=O)CSC4c4c(F)cccc4F)cc3F)c2cc1OC (stereo not drawn),0.65 µM
5,CCN1CCN(CCCOc2cc3nccc(Oc4c(F)cc(NC(=O)NN5C(=O)CSC5c5ccccc5)cc4F)c3cc2OC)CC1 (stereo not drawn),0.26 µM
6,CCN(CC)CCCOc1cc2nccc(N(C)c3ccc(NC(=O)NN4C(=O)CSC4c4c(F)cccc4F)cc3)c2cc1OC (stereo not drawn),6.9 µM

# System: HT-29
# Test: cells
# Conditions: Homo sapiens
row,Compound,IC50
1,COc1cc2c(Oc3ccc(NC(=O)NN4C(=O)CSC4c4c(F)cccc4F)cc3)ccnc2cc1OCCCN1CCCC1 (stereo not drawn),0.16 µM
2,CCN(CC)CCCOc1cc2nccc(Oc3ccc(NC(=O)NN4C(=O)CSC4c4c(F)cccc4F)cc3)c2cc1OC (stereo not drawn),0.53 µM
3,CCN1CCN(CCCOc2cc3nccc(Oc4c(F)cc(NC(=O)NN5C(=O)CSC5c5ccc(F)cc5)cc4F)c3cc2OC)CC1 (stereo not drawn),0.52 µM
4,COc1cc2nccc(Oc3c(F)cc(NC(=O)NN4C(=O)CSC4c4c(F)cccc4F)cc3F)c2cc1OC (stereo not drawn),4.1 µM
5,CCN1CCN(CCCOc2cc3nccc(Oc4c(F)cc(NC(=O)NN5C(=O)CSC5c5ccccc5)cc4F)c3cc2OC)CC1 (stereo not drawn),0.14 µM

# System: HCT-116
# Test: cells
# Conditions: Homo sapiens
row,Compound,IC50
1,COc1cc2c(Oc3ccc(NC(=O)NN4C(=O)CSC4c4c(F)cccc4F)cc3)ccnc2cc1OCCCN1CCCC1 (stereo not drawn),0.81 µM
2,CCN(CC)CCCOc1cc2nccc(Oc3ccc(NC(=O)NN4C(=O)CSC4c4c(F)cccc4F)cc3)c2cc1OC (stereo not drawn),0.15 µM
3,CCN1CCN(CCCOc2cc3nccc(Oc4c(F)cc(NC(=O)NN5C(=O)CSC5c5ccc(F)cc5)cc4F)c3cc2OC)CC1 (stereo not drawn),0.2 µM
4,COc1cc2nccc(Oc3c(F)cc(NC(=O)NN4C(=O)CSC4c4c(F)cccc4F)cc3F)c2cc1OC (stereo not drawn),> 10 µM
5,CCN1CCN(CCCOc2cc3nccc(Oc4c(F)cc(NC(=O)NN5C(=O)CSC5c5ccccc5)cc4F)c3cc2OC)CC1 (stereo not drawn),0.21 µM
6,CCN(CC)CCCOc1cc2nccc(N(C)c3ccc(NC(=O)NN4C(=O)CSC4c4c(F)cccc4F)cc3)c2cc1OC (stereo not drawn),> 10 µM
